Measurements from ChEMBL document CHEMBL1649078, “Novel antiviral C5-substituted pyrimidine acyclic nucleoside phosphonates selected as human thymidylate kinase substrates” (J Med Chem, 2011).
Calls of active or inactive are those of the source.

Experiments:
Homo sapiens [1] = species on record: Homo sapiens; assay: (§1) Displacement of Mant-ATP from human recombinant UCK by fluorescence competition assay
[2] = molecular target: Thymidine kinase, cytosolic (Homo sapiens) (UniProt P04183); assay: Inhibition of human recombinant TK1-mediated thymidine phosphorylation ar 0.3 mM
Homo sapiens [3] = species on record: Homo sapiens; assay: Binding affinity to human recombinant UCK ATP binding site
Homo sapiens [4] = species on record: Homo sapiens; assay: Activity at human recombinant UCK by Michaelis-Menten equation analysis
Homo sapiens [5] = species on record: Homo sapiens; assay: Binding affinity to human recombinant UCK dCMP binding site
Homo sapiens [6] = species on record: Homo sapiens; assay: Displacement of MABA-CDP from human recombinant UCK by fluorescence competition assay
[7] = Inhibition of human recombinant UCK by Double reciprocal plot analysis
[8] = as §1; details: read-out: Kd(app)
[9] = molecular target: Thymidine kinase 2, mitochondrial (Homo sapiens) (UniProt O00142); assay: Inhibition of human recombinant TK2-mediated thymidine phosphorylation ar 0.3 mM
Human betaherpesvirus 5 = assay: Antiviral activity against HCMV AD169/Davis infected in human HEL cells assessed as reduction of virus-induced cytopathogenicity after 7 days; format: functional, organism-based; details: Human betaherpesvirus 5, AD169/Davis, 168 h
Human alphaherpesvirus 1 [10] = assay: Antiviral activity against acyclovir-resistant thymidine kinase deficient HSV1 KOS infected in human HEL cells assessed as reduction of virus-induced cytopathogenicity after 7 days; format: functional, organism-based; details: Human alphaherpesvirus 1, KOS, 168 h
Human alphaherpesvirus 3 [11] = assay: Antiviral activity against VZV OKA expressing thymidine kinase infected in human HEL cells assessed as reduction of virus-induced cytopathogenicity after 5 days; format: functional, organism-based; details: Human alphaherpesvirus 3, OKA, 120 h
Human alphaherpesvirus 1 [12] = assay: Antiviral activity against HSV1 KOS infected in human HEL cells assessed as reduction of virus-induced cytopathogenicity after 7 days; format: functional, organism-based; details: Human alphaherpesvirus 1, KOS, 168 h
[13] = Cytotoxicity against human HEL cells after 3 days; format: cell-based
Human alphaherpesvirus 3 [14] = assay: Antiviral activity against thymidine kinase-deficient VZV 07/1 infected in human HEL cells assessed as reduction of virus-induced cytopathogenicity after 5 days; format: functional, organism-based; details: Human alphaherpesvirus 3, 07/1, HEL, 120 h
Human alphaherpesvirus 2 = assay: Antiviral activity against HSV2 G infected in human HEL cells assessed as reduction of virus-induced cytopathogenicity after 7 days; format: functional, organism-based; details: Human alphaherpesvirus 2, strain G, 168 h
Homo sapiens [15] = species on record: Homo sapiens; assay: Binding affinity to human recombinant UCK by circular dichroism analysis
[16] = substrate: Cc1cn([C@H]2C[C@H](N=[N+]=[N-])[C@@H](COP(=O)(O)O)O2)c(=O)[nH]c1=O; assay: (§2) Ratio of kcat/km for human recombinant TMPK by Michaelis-Menten equation analysis
[17] = substrate: Cc1cn(C/C=C/CP(=O)(O)O)c(=O)[nH]c1=O; assay: as §2
[18] = substrate: O=c1ccn(C/C=C/CCP(=O)(O)O)c(=O)[nH]1; assay: as §2
[19] = substrate: Cc1cn(C/C=C/P(=O)(O)O)c(=O)[nH]c1=O; assay: as §2
[20] = substrate: O=c1[nH]c(=O)n(C/C=C/CP(=O)(O)O)cc1Br; assay: as §2
[21] = substrate: O=c1ccn([C@H]2C[C@H](O)[C@@H](COP(=O)(O)O)O2)c(=O)[nH]1; assay: as §2
[22] = substrate: O=c1[nH]c(=O)n(C/C=C/CCP(=O)(O)O)cc1Cl; assay: as §2
[23] = substrate: Cc1cn([C@H]2C[C@H](O)[C@@H](COP(=O)(O)O)O2)c(=O)[nH]c1=O; assay: as §2
[24] = substrate: O=c1[nH]c(=O)n([C@H]2C[C@H](O)[C@@H](COP(=O)(O)O)O2)cc1Br; assay: as §2
[25] = substrate: O=c1[nH]c(=O)n(C/C=C/CP(=O)(O)O)cc1F; assay: as §2
[26] = substrate: O=c1[nH]c(=O)n(C/C=C/CCP(=O)(O)O)cc1F; assay: as §2
[27] = substrate: O=c1[nH]c(=O)n(C/C=C/CP(=O)(O)O)cc1Cl; assay: as §2
[28] = substrate: O=c1ccn(C/C=C/CP(=O)(O)O)c(=O)[nH]1; assay: as §2
[29] = substrate: Cc1cn(C/C=C/CCP(=O)(O)O)c(=O)[nH]c1=O; assay: as §2
[30] = substrate: O=c1[nH]c(=O)n(C/C=C/CCP(=O)(O)O)cc1Br; assay: as §2
[31] = substrate: O=c1[nH]c(=O)n(C/C=C/P(=O)(O)O)cc1Cl; assay: as §2
[32] = substrate: Cc1cn(C/C=C/CP(=O)(O)O)c(=O)[nH]c1=O; assay: (§3) Activity at human recombinant TMPK by Michaelis-Menten equation analysis
[33] = substrate: O=c1ccn(C/C=C/CCP(=O)(O)O)c(=O)[nH]1; assay: as §3
[34] = substrate: Cc1cn(C/C=C/P(=O)(O)O)c(=O)[nH]c1=O; assay: as §3
[35] = substrate: O=c1[nH]c(=O)n(C/C=C/CP(=O)(O)O)cc1Br; assay: as §3
[36] = substrate: O=c1ccn([C@H]2C[C@H](O)[C@@H](COP(=O)(O)O)O2)c(=O)[nH]1; assay: as §3
[37] = substrate: O=c1[nH]c(=O)n(C/C=C/CCP(=O)(O)O)cc1Cl; assay: as §3
[38] = substrate: Cc1cn([C@H]2C[C@H](O)[C@@H](COP(=O)(O)O)O2)c(=O)[nH]c1=O; assay: as §3
[39] = substrate: O=c1[nH]c(=O)n([C@H]2C[C@H](O)[C@@H](COP(=O)(O)O)O2)cc1Br; assay: as §3
[40] = substrate: O=c1[nH]c(=O)n(C/C=C/CP(=O)(O)O)cc1F; assay: as §3
[41] = substrate: O=c1[nH]c(=O)n(C/C=C/CCP(=O)(O)O)cc1F; assay: as §3
[42] = substrate: O=c1[nH]c(=O)n(C/C=C/CP(=O)(O)O)cc1Cl; assay: as §3
[43] = substrate: O=c1ccn(C/C=C/CP(=O)(O)O)c(=O)[nH]1; assay: as §3
[44] = substrate: Cc1cn(C/C=C/CCP(=O)(O)O)c(=O)[nH]c1=O; assay: as §3
[45] = substrate: O=c1[nH]c(=O)n(C/C=C/CCP(=O)(O)O)cc1Br; assay: as §3

Thymidine kinase 2, mitochondrial (Homo sapiens), sequence (O00142 whole entry): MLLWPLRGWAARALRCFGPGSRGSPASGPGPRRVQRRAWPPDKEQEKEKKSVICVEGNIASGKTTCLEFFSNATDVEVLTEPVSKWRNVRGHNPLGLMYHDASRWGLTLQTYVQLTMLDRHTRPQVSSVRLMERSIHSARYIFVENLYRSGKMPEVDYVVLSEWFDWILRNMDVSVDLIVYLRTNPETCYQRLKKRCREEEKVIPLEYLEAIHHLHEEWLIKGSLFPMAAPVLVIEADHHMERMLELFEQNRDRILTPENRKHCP
Thymidine kinase, cytosolic (Homo sapiens), sequence (P04183 whole entry): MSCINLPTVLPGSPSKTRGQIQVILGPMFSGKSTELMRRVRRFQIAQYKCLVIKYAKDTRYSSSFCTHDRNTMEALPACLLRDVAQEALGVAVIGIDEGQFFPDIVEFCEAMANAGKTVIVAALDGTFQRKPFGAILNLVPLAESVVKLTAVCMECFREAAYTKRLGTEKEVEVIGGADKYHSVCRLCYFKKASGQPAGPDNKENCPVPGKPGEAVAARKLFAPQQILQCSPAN

Molecule: Nc1ncnc2c1ncn2CCOCP(=O)(O)O
- Activity (Homo sapiens [1]): inactive

Molecule: O=c1[nH]c(=O)n(C/C=C/CP(=O)(O)O)cc1Cl
- inhibition [2]: 15%
- Activity (Homo sapiens [3]): Active
- Activity (Homo sapiens [4]): inactive
- Activity (Homo sapiens [5]): Active
- Activity (Homo sapiens [6]): inactive
- Ki [7]: 250 µM
- Kd [8]: 170 µM
- inhibition [9]: 15%

Molecule: Cc1cn(C/C=C/CP(=O)(O)O)c(=O)[nH]c1=O
- Activity (Homo sapiens [4]): inactive
- Activity (Homo sapiens [6]): inactive
- Ki [7]: 1200 µM

Molecule: Cc1cn(C/C=C\CP(=O)(OCOC(=O)C(C)(C)C)OCOC(=O)C(C)(C)C)c(=O)[nH]c1=O
- EC50 (Human betaherpesvirus 5): > 200 µM
- Activity (Homo sapiens [4]): inactive
- Activity (Homo sapiens [6]): inactive
- EC50 (Human alphaherpesvirus 1 [10]): > 40 µM
- EC50 (Human alphaherpesvirus 3 [11]): > 40 µM
- EC50 (Human alphaherpesvirus 1 [12]): > 40 µM
- CC50 at 72 h [13]: 35 µM
- MCC at 72 h [13]: ≥ 200 µM
- EC50 (Human alphaherpesvirus 3 [14]): > 40 µM
- EC50 (Human alphaherpesvirus 2): > 40 µM

Molecule: CC(C)(C)C(=O)OCOP(=O)(C/C=C/Cn1cc(Br)c(=O)[nH]c1=O)OCOC(=O)C(C)(C)C
- EC50 (Human betaherpesvirus 5): > 40 µM
- Activity (Homo sapiens [4]): inactive
- Activity (Homo sapiens [6]): inactive
- EC50 (Human alphaherpesvirus 1 [10]): 19 µM
- EC50 (Human alphaherpesvirus 3 [11]): 20 µM
- EC50 (Human alphaherpesvirus 1 [12]): 20 µM
- CC50 at 72 h [13]: 34 µM
- MCC at 72 h [13]: 200 µM
- EC50 (Human alphaherpesvirus 3 [14]): 15 µM
- EC50 (Human alphaherpesvirus 2): 16 µM

Molecule: Nc1ccn([C@H]2C[C@H](O)[C@@H](COP(=O)(O)O)O2)c(=O)n1
- Activity (Homo sapiens [15]): inactive

Molecule: Nc1ccn(C[C@@H](CO)OCP(=O)(O)O)c(=O)n1 [CIDOFOVIR]
- EC50 (Human betaherpesvirus 5): 1.2 µM
- EC50 (Human alphaherpesvirus 1 [10]): 2.5 µM
- EC50 (Human alphaherpesvirus 3 [11]): 0.044 µM
- Activity (Homo sapiens [1]): inactive
- EC50 (Human alphaherpesvirus 1 [12]): 3.5 µM
- CC50 at 72 h [13]: 280 µM
- MCC at 72 h [13]: > 250 µM
- EC50 (Human alphaherpesvirus 3 [14]): 0.07 µM
- EC50 (Human alphaherpesvirus 2): 2 µM
- Activity (Homo sapiens [15]): inactive

Molecule: C[C@H](Cn1cnc2c(N)ncnc21)OCP(=O)(O)O
- Activity (Homo sapiens [1]): inactive

B1: Thymidylate kinase (Homo sapiens), P23919 (protein)
chain: MAARRGALIVLEGVDRAGKSTQSRKLVEALCAAGHRAELLRFPERSTEIGKLLSSYLQKKSDVEDHSVHLLFSANRWEQVPLIKEKLSQGVTLVVDRYAFSGVAFTGAKENFSLDWCKQPDVGLPKPDLVLFLQLQLADAAKRGAFGHERYENGAFQERALRCFHQLMKDTTLNWKMVDASKSIEAVHEDIRVLSEDAIRTATEKPLGELWK
- kcat/Km [16]: 1000 M⁻¹ s⁻¹
- kcat/Km [17]: 35000 M⁻¹ s⁻¹
- kcat/Km [18]: 30 M⁻¹ s⁻¹
- kcat/Km [19]: 600 M⁻¹ s⁻¹
- kcat/Km [20]: 45000 M⁻¹ s⁻¹
- kcat/Km [21]: 28000 M⁻¹ s⁻¹
- kcat/Km [22]: 660 M⁻¹ s⁻¹
- kcat/Km [23]: 150000 M⁻¹ s⁻¹
- kcat/Km [24]: 120000 M⁻¹ s⁻¹
- kcat/Km [25]: 730 M⁻¹ s⁻¹
- kcat/Km [26]: 47 M⁻¹ s⁻¹
- kcat/Km [27]: 4100 M⁻¹ s⁻¹
- kcat/Km [28]: 280 M⁻¹ s⁻¹
- kcat/Km [29]: 3200 M⁻¹ s⁻¹
- kcat/Km [30]: 360 M⁻¹ s⁻¹
- kcat/Km [31]: 80 M⁻¹ s⁻¹
- Km [32]: 24 µM
- kcat [32]: 0.84 s⁻¹
- Km [33]: 2500 µM
- kcat [33]: 0.074 s⁻¹
- Km [34]: 1000 µM
- kcat [34]: 0.6 s⁻¹
- Km [35]: 20 µM
- kcat [35]: 0.9 s⁻¹
- Km [36]: 170 µM
- kcat [36]: 4.8 s⁻¹
- Km [37]: 150 µM
- kcat [37]: 0.1 s⁻¹
- Km [38]: 20 µM
- kcat [38]: 3 s⁻¹
- Km [39]: 10 µM
- kcat [39]: 1.2 s⁻¹
- Km [40]: 1000 µM
- kcat [40]: 0.73 s⁻¹
- Km [41]: 1900 µM
- kcat [41]: 0.09 s⁻¹
- Km [42]: 130 µM
- kcat [42]: 0.5 s⁻¹
- Km [43]: 1700 µM
- kcat [43]: 0.48 s⁻¹
- Km [44]: 100 µM
- kcat [44]: 0.32 s⁻¹
- Km [45]: 160 µM
- kcat [45]: 0.058 s⁻¹
